17 compounds from PubChem BioAssay (NCI) can be followed below.

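Cultured in 96-well plates, cells were exposed to test compound for 48 hours across five concentrations. The concentration for 50% growth inhibition is given as GI50. TGI is the concentration that stops growth completely.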

Some test systems named below: CCRF-CEM leukemia; DMS 114 small cell lung; HCT-116 colon; HT29 colon; LOX IMVI melanoma; M19-MEL melanoma; MOLT-4 leukemia; U251 CNS; BT-549 breast; NCI/ADR-RES ovarian.
What all share (assay): NCI-60 cell line screen, 48 h

As for `CCC[CH2][Sn]1([CH2]CCC)[O]Cc2nc(C)ccc2[O]1`, the GI50 was 1.87 µM in the experiment with CCRF-CEM leukemia; 3.07 µM in the experiment with DMS 114 small cell lung; 12.1 µM with HCT-116 colon; 12.8 µM in the experiment on HT29 colon; 1.95 µM in the experiment with LOX IMVI melanoma; 4.49 µM in the experiment with M19-MEL melanoma. Also, the GI50 was 3.04 µM with MOLT-4 leukemia and 4.73 µM in the experiment with U251 CNS. Further, the TGI in the experiment on CCRF-CEM leukemia was 5.01 µM; in the experiment with DMS 114 small cell lung it was 9.3 µM; in the experiment with HCT-116 colon, 24.5 µM; in the experiment on HT29 colon, 29.1 µM; in the experiment on LOX IMVI melanoma it was 3.97 µM; with M19-MEL melanoma it was 19.2 µM. Also, the values for the TGI with MOLT-4 leukemia and in the experiment on U251 CNS were 10.7 µM and 16.7 µM, respectively.
As for `O=C(/N=N/C(=O)OCc1ccccc1)OCc1ccccc1`, the TGI in the experiment on CCRF-CEM leukemia, in the experiment with DMS 114 small cell lung, in the experiment with HCT-116 colon, in the experiment on HT29 colon, in the experiment on LOX IMVI melanoma and in the experiment on M19-MEL melanoma was greater than 100 µM in each case. In addition, the TGI in the experiment with MOLT-4 leukemia and with U251 CNS was greater than 100 µM throughout.
As to `CC(C)(C)C1C=C(Sc2ccccc2)C(=O)O1` (stereo not given), the TGI in the experiment on CCRF-CEM leukemia, with DMS 114 small cell lung, with HCT-116 colon, in the experiment on HT29 colon, with LOX IMVI melanoma and in the experiment on M19-MEL melanoma was greater than 100 µM each time. In addition, the TGI in the experiment with MOLT-4 leukemia and with U251 CNS was greater than 100 µM each time.
Turning to `Cc1cccc(C)c1NC(=O)C(=O)C1C(=O)NC(=O)NC1=O`, the TGI in the experiment on CCRF-CEM leukemia, in the experiment with DMS 114 small cell lung, with HCT-116 colon, with HT29 colon, in the experiment on LOX IMVI melanoma and in the experiment with M19-MEL melanoma was greater than 100 µM throughout. The TGI in the experiment on MOLT-4 leukemia and with U251 CNS was greater than 100 µM each time.
`COC(=O)/C(=N/NC(=O)C[N+](C)(C)C)C(C(=O)OC)C(=O)C(=O)Nc1ccc(F)cc1` (stereo not given): the TGI in the experiment on CCRF-CEM leukemia, with DMS 114 small cell lung, in the experiment with HCT-116 colon, in the experiment with HT29 colon, in the experiment with LOX IMVI melanoma and with M19-MEL melanoma was greater than 100 µM each time. Moreover, the TGI in the experiment on MOLT-4 leukemia and in the experiment on U251 CNS was greater than 100 µM each time.
With `O=C1O[C@@H](c2ccc3c(c2)OCO3)C2C(=O)O[C@@H](c3ccc4c(c3)OCO4)C12` (stereo not given in full), the TGI in the experiment on CCRF-CEM leukemia, with DMS 114 small cell lung, with HCT-116 colon, in the experiment with HT29 colon, in the experiment with LOX IMVI melanoma and with M19-MEL melanoma was greater than 100 µM throughout. Further, the TGI in the experiment with MOLT-4 leukemia and in the experiment with U251 CNS was greater than 100 µM in each case.
On to `CC[CH2][Sn]([CH2]CC)([O]C(=O)c1cccnc1SC)[O][Sn]([CH2]CC)([CH2]CC)[O]C(=O)c1cccnc1SC`, for which the GI50 is 1.41 µM in the experiment on BT-549 breast; 0.0691 µM in the experiment on CCRF-CEM leukemia; 0.0726 µM in the experiment with DMS 114 small cell lung; 0.452 µM in the experiment with HCT-116 colon; 1.1 µM with HT29 colon; 0.23 µM in the experiment on LOX IMVI melanoma. The GI50 with M19-MEL melanoma was 0.0833 µM; in the experiment on MOLT-4 leukemia it was 0.149 µM; with NCI/ADR-RES ovarian, 1.49 µM; in the experiment with U251 CNS, 0.25 µM. The TGI turned out to be 2.71 µM with BT-549 breast; 0.756 µM with CCRF-CEM leukemia; 0.222 µM in the experiment on DMS 114 small cell lung; 1.48 µM in the experiment with HCT-116 colon; 3.33 µM in the experiment with HT29 colon; 0.567 µM in the experiment with LOX IMVI melanoma. The TGI with M19-MEL melanoma was 0.337 µM; with MOLT-4 leukemia it was greater than 16.6 µM; with NCI/ADR-RES ovarian it was 3.24 µM; with U251 CNS, 0.592 µM.
With `O=C1CCC2(c3ccc(F)cc3)Nc3cc(Cl)ccc3N12` (stereo not given), the TGI with CCRF-CEM leukemia, in the experiment with DMS 114 small cell lung, with HCT-116 colon, in the experiment with HT29 colon, in the experiment on LOX IMVI melanoma and with M19-MEL melanoma was greater than 100 µM in each case. The TGI with MOLT-4 leukemia and in the experiment with U251 CNS was greater than 100 µM in each case.
`NC(CCC(=O)NC(CSSCCCCS(=O)O)C(=O)NCC(=O)O)C(=O)O` (stereo not given): the TGI with CCRF-CEM leukemia, in the experiment on DMS 114 small cell lung, in the experiment with HCT-116 colon, with HT29 colon, with LOX IMVI melanoma and in the experiment with M19-MEL melanoma was greater than 100 µM throughout. For the same compound, the TGI in the experiment with MOLT-4 leukemia and in the experiment with U251 CNS was greater than 100 µM in each case.
Take `CSC(C1c2ccccc2N(c2ccc(C)cc2)C2=NC(=O)N(C)C(=O)C21Cl)S(=O)(=O)c1ccc(C)cc1` (stereo not given): the TGI with CCRF-CEM leukemia amounted to 38 µM; with DMS 114 small cell lung, 49.8 µM; in the experiment with HCT-116 colon it was 25.7 µM; with HT29 colon, 57 µM; in the experiment on LOX IMVI melanoma, 40.3 µM; in the experiment with M19-MEL melanoma, 69.2 µM. For the same compound, the TGI in the experiment with MOLT-4 leukemia worked out at 32 µM; with U251 CNS, 38.9 µM.
Consider `CN1CCN(C)C12C=c1ccccc1=CC21CC1`, for which the TGI is greater than 100 µM in the experiment on BT-549 breast; 58.2 µM with CCRF-CEM leukemia; 36.3 µM with DMS 114 small cell lung; 56.9 µM in the experiment on HCT-116 colon; 32.7 µM in the experiment with HT29 colon; 90 µM in the experiment on LOX IMVI melanoma. Further, the TGI with M19-MEL melanoma was 37.1 µM; in the experiment on MOLT-4 leukemia, 54.8 µM; in the experiment with NCI/ADR-RES ovarian, greater than 100 µM; with U251 CNS it was greater than 82 µM.
Turning to `Cc1cc2c(cc1C)[n+](=O)c(C(=O)C/C(=N/NC(=O)CC#N)C(=O)Nc1ccccc1C(F)(F)F)c(C)n2[O-]`, the TGI in the experiment with CCRF-CEM leukemia, in the experiment on DMS 114 small cell lung, in the experiment on HCT-116 colon, in the experiment on HT29 colon, with LOX IMVI melanoma and with M19-MEL melanoma was greater than 100 µM throughout. Moreover, the TGI in the experiment on MOLT-4 leukemia and in the experiment with U251 CNS was greater than 100 µM throughout.
With `O=c1c2cc([N+](=O)[O-])ccc2sc2ccsc12`, the TGI in the experiment with CCRF-CEM leukemia, in the experiment with DMS 114 small cell lung, with HCT-116 colon, in the experiment with HT29 colon, in the experiment on LOX IMVI melanoma and in the experiment on M19-MEL melanoma was greater than 100 µM in each case. The TGI with MOLT-4 leukemia and with U251 CNS was greater than 100 µM in each case.
On to `O=C1/C(=C/c2ccccc2)CNC/C1=C\c1ccccc1`, for which the TGI was greater than 25.5 µM in the experiment on CCRF-CEM leukemia; 8.36 µM with DMS 114 small cell lung; 0.415 µM with HCT-116 colon; 3.13 µM with HT29 colon; 2.05 µM in the experiment with LOX IMVI melanoma; 2.72 µM with M19-MEL melanoma. In addition, the TGI is 3.36 µM with MOLT-4 leukemia and 1.37 µM with U251 CNS.
Consider `O=c1/c(=C/c2ccco2)sc2nc3ccccc3n12`, for which the GI50 in the experiment on CCRF-CEM leukemia, in the experiment on DMS 114 small cell lung, with HCT-116 colon, in the experiment with HT29 colon, with LOX IMVI melanoma and in the experiment on M19-MEL melanoma was greater than 100 µM throughout. For the same compound, the GI50 with MOLT-4 leukemia is greater than 100 µM. Also, the TGI in the experiment on CCRF-CEM leukemia, with DMS 114 small cell lung, in the experiment with HCT-116 colon, in the experiment on HT29 colon, with LOX IMVI melanoma and in the experiment on M19-MEL melanoma was greater than 100 µM each time. Moreover, the figures for the TGI in the experiment on MOLT-4 leukemia and in the experiment on U251 CNS were greater than 100 µM and greater than 10 µM, respectively.
For `O=C(/C=C/c1c(O)ccc2ccccc12)c1cccc(O)c1`, the TGI in the experiment on CCRF-CEM leukemia is greater than 100 µM; with DMS 114 small cell lung it was greater than 77.3 µM; in the experiment with HCT-116 colon, greater than 100 µM; in the experiment with HT29 colon it was greater than 100 µM; with LOX IMVI melanoma it was greater than 72.1 µM; in the experiment on M19-MEL melanoma it was 33.3 µM. The TGI with MOLT-4 leukemia and with U251 CNS was greater than 100 µM throughout.
Turning to `C/C(CC(=O)Nc1ccc(C)cc1C)=N/N=C(N)N`, the TGI with CCRF-CEM leukemia, with DMS 114 small cell lung, in the experiment on HCT-116 colon, in the experiment with HT29 colon, with LOX IMVI melanoma and with M19-MEL melanoma was greater than 100 µM in each case. The TGI with MOLT-4 leukemia and with U251 CNS was greater than 100 µM each time.
